Experimental data: US8507523B2, “Therapeutic tetrahydroisoquinoline-based compositions for cancer therapy” (priority 2006, dated 2013)
Structures can show the parent of a compound that is named as a salt. Where two headings read alike, the source gives them in different places.

How the values were obtained:
C6 glioma = experiment: Dose response (percent survival) in C6 glioma cell cultures; format: cell-based, rat; conditions: C6 glioma cells, 4 days of treatment, percent survival
From the text: (§1) 6,7-Dimethoxy-1-[4-(4-methoxypyridin-3-yl)benzyl]-1,2,3,4-tetrahydroisoquinolinehydrochloride (EDL-291) was synthesized as described herein in the laboratory of Dr. Duane D. Miller at The University of Tennessee Health Science Center. Briefly, the primary cultures of astrocytes and cultures of C6 glioma cell lines were handled identically with respect to treatment concentrations and manipulations of cells for the screening assays. The cells were trypsinized and transferred to 96-well plates at a cell density of 10^3 cells/mm^2 in the wells. The cells were grown overnight in 100 μL of 10% FCS BME in a 37° C. incubator containing a humid, 5% CO2 atmosphere.
(§2) EDL291 was dissolved completely to make a […] stock solution and diluted to produce a series of concentrations. A 20 μL aliquot of these initial solutions was added to 180 μl of 2% FCS BME to produce the test concentration. The vehicle solution was tested as a control. […] Immediately before treatment, the 10% FCS BME was removed from the cells and replaced with the 180 μl of the treatment medium. The cultured cells (normal primary cultures of rat brain astrocytes or C6 glioma purchased from ATCC) were incubated with test compound for 4 days. The cells were fixed with 4% paraformaldehyde, stained with 0.1% Cresylecth violet stain, and quantitated. The screening data was collected as four wells for each dose per compound (screening) or concentration (dose response curve). Also, the average growth of 8 wells with no treatment was used as a negative control for each plate (100% growth). The cells for dose response curves were grown in the same media and were handled in a similar manner as in the screening assays.
(§3) The cytotoxic character of each compound was reported as the percent survival, calculated as the average A560 for treated cells divided by A560 of untreated (100% control) cells, and expressed as a percentage. Values less than 100% indicate a cytostatic or cytotoxic effect. Dose response curves and EC50 values were attained via plots of percent survival vs. concentration.

[1] = system: normal primary cultures of rat brain astrocytes; experiment: Dose response (percent survival) in primary cultures of astrocytes; format: cell-based; conditions: 4 days of treatment
From the text: as §1, §2, §3

[2] = Rattus norvegicus, C6 glioma, 96 h
[3] = Rattus norvegicus, Astrocyte, 96 h

Structure (SMILES) | EC50 (C6 glioma; [2]) | EC50 [1, 3] | EC50 μM Astrocyte [1] | also measured
COc1cc2c(cc1OC)C(Cc1ccc(-c3ccncc3)cc1)N(C(=O)OC(C)(C)C)CC2 (stereo not drawn) [Compound 3, 6,7-Dimethoxy-1-(4-pyridin-4-yl-benzyl)-3,4-dihydro-1H-isoquinoline-2-carboxylic acid tert-butyl ester] | 5.92 µM | 18.4 µM | – | –
COc1cc2c(cc1OC)C(Cc1ccc(-c3ccncc3)cc1)NCC2 (stereo not drawn) [Compound 4, 6,7-Dimethoxy-1-(4-pyridin-4-ylbenzyl)-1,2,3,4-tetrahydroisoquinoline hydrochloride salt] | 17.7 µM | 74.4 µM | – | –
COc1cc2c(cc1OC)C(Cc1ccc(-c3cccnc3OC)cc1)N(C(=O)OC(C)(C)C)CC2 (stereo not drawn) [Compound 6, 6,7-Dimethoxy-1-[4-(2-methoxypyridin-3-yl)benzyl]-3,4-dihydro-1H-isoquinoline-2-carboxylic acid tert-butyl ester] | 4.3 µM | – | No Effect | –
COc1cc2c(cc1OC)C(Cc1ccc(-c3cccnc3OC)cc1)NCC2 (stereo not drawn) [Compound 7, 6,7-Dimethoxy-1-[4-(2-methoxypyridin-3-yl)benzyl]-1,2,3,4-tetrahydroisoquinoline hydrochloride salt] | 1.75 µM | 50 to 100 µM | – | –
COc1cc2c(cc1OC)C(Cc1ccc(-c3cccnc3OC)cc1)N(C)CC2 (stereo not drawn) [Compound 8, 6,7-dimethoxy-1-[4-(2-methoxypyridin-3-yl)benzyl]-2-methyl-1,2,3,4-tetrahydro-isoquinoline] | – | 27.3 µM | – | EC50 (C6 glioma; listed as drawing 26): 2.2 µM
COc1cc2c(cc1OC)C(Cc1ccc(-c3cccnc3OC)cc1)N(C)CC2 (stereo not drawn) [Compound 9, 6,7-Dimethoxy-1-[4-(2-methoxypyridin-3-yl)benzyl]-2-methyl-1,2,3,4-tetrahydroisoquinolinehydrochloride] | – | – | – | EC50 (C6 glioma; listed as drawing 27): 5.5 µM; EC50 ([1]; read-out: EC50 μM Astrocyte): 25.3 µM
COc1cc2c(cc1OC)C(Cc1ccc(-c3ccncc3OC)cc1)N(C(=O)OC(C)(C)C)CC2 (stereo not drawn) [Compound 11, 6,7-Dimethoxy-1-[4-(3-methoxypyridin-4-yl)benzyl]-3,4-dihydro-1H-isoquinoline-2-carboxylic acid tert-butyl ester] | 4.4 µM | 13.6 µM | – | –
COc1cc2c(cc1OC)C(Cc1ccc(-c3ccncc3OC)cc1)NCC2 (stereo not drawn) [Compound 12, 6,7-Dimethoxy-1-[4-(3-methoxypyridin-4-yl)benzyl]-1,2,3,4-tetrahydroisoquinoline hydrochloride salt] | 6.9 µM | 49.5 µM | – | –
COc1cc2c(cc1OC)C(Cc1ccc(-c3ccccc3NS(C)(=O)=O)cc1)N(C(=O)OC(C)(C)C)CC2 (stereo not drawn) [Compound 14, 1-(2′-Methanesulfonylaminobiphenyl-4-ylmethyl)-6,7-dimethoxy-3,4-dihydro-1H-isoquinoline-2-carboxylic acid tert-butyl ester] | 6.2 µM | – | No Effect | –
COc1cc2c(cc1OC)C(Cc1ccc(-c3ccccc3NS(C)(=O)=O)cc1)NCC2 (stereo not drawn) [Compound 15, N-[4′-(6,7-Dimethoxy-1,2,3,4-tetrahydroisoquinolin-1-ylmethyl)-biphenyl-2-yl]-methanesulfonamide hydrochloride salt] | 8.9 µM | 50 to 100 µM | – | –
COc1cc2c(cc1OC)C(Cc1ccc(-c3ccccc3NC(C)=O)cc1)N(C(=O)OC(C)(C)C)CC2 (stereo not drawn) [Compound 17, 1-(2′-Acetylaminobiphenyl-4-ylmethyl)-6,7-dimethoxy-3,4-dihydro-1H-isoquinoline-2-carboxylic acid tert-butyl ester] | 9.2 µM | – | No Effect | –
COc1cc2c(cc1OC)C(Cc1ccc(-c3ccccc3NC(C)=O)cc1)NCC2.Cl (stereo not drawn) [Compound 18, N-[4′-(6,7-Dimethoxy-1,2,3,4-tetrahydroisoquinolin-1-ylmethyl)biphenyl-2-yl]acetamide hydrochloride salt] | 22.4 µM | – | No Effect | –
COc1cc2c(cc1OC)C(Cc1ccc(-c3cnccc3OC)cc1)N(C(=O)OC(C)(C)C)CC2 (stereo not drawn) [Compound 20, 6,7-Dimethoxy-1-[4-(4-methoxypyridin-3-yl)benzyl]-3,4-dihydro-1H-isoquinoline-2-carboxylic acid tert-butyl ester] | 5.9 µM | 12.2 µM | – | –
COc1cc2c(cc1OC)C(Cc1ccc(-c3cnccc3OC)cc1)N(C)CC2 (stereo not drawn) [Compound 23, 6,7-Dimethoxy-1-[4-(4-methoxypyridin-3-yl)benzyl]-2-methyl-1,2,3,4-tetrahydroisoquinoline hydrochloride] | 3.3 µM | 28.2 µM | – | –
COc1ncc(-c2ccc(CC3c4cc(OC)c(OC)cc4CCN3C(=O)OC(C)(C)C)cc2)c(OC)n1 (stereo not drawn) [Compound 25, 1-[4-(2,4-Dimethoxypyrimidin-5-yl)benzyl]-6,7-dimethoxy-3,4-dihydro-1H-isoquinoline-2-carboxylic acid tert-butyl ester] | 6.8 µM | – | No Effect | –
COc1ncc(-c2ccc(CC3NCCc4cc(OC)c(OC)cc43)cc2)c(OC)n1 (stereo not drawn) [Compound 26, 1-[4-(2,4-Dimethoxypyrimidin-5-yl)benzyl]-6,7-dimethoxy-1,2,3,4-tetrahydroisoquinoline hydrochloride] | 9.3 µM | 34 µM | – | –
COc1cc2c(cc1OC)C(Cc1ccc(-c3cncnc3)cc1)N(C(=O)OC(C)(C)C)CC2 (stereo not drawn) [Compound 28, 6,7-Dimethoxy-1-(4-pyrimidin-5-ylbenzyl)-3,4-dihydro-1H-isoquinoline-2-carboxylic acid tert-butyl ester] | 15.2 µM | – | No Effect | –
COc1cc2c(cc1OC)C(Cc1ccc(-c3cncnc3)cc1)NCC2.Cl (stereo not drawn) [Compound 29, 6,7-Dimethoxy-1-(4-pyrimidin-5-ylbenzyl)-1,2,3,4-tetrahydroisoquinoline hydrochloride] | 39.4 µM | – | No Effect | –
COc1cc2c(cc1OC)C(Cc1ccc(-c3cccnc3Cl)cc1)N(C(=O)OC(C)(C)C)CC2 (stereo not drawn) [Compound 31, 1-[4-(2-Chloro-pyridin-3-yl)benzyl]-6,7-dimethoxy-3,4-dihydro-1H-isoquinoline-2-carboxylic acid tert-butyl ester] | 3.5 µM | – | No Effect | –
COc1cc2c(cc1OC)C(Cc1ccc(-c3cccnc3Cl)cc1)NCC2 (stereo not drawn) [Compound 32, 1-[4-(2-Chloro-pyridin-3-yl)benzyl]-6,7-dimethoxy-1,2,3,4-tetrahydroisoquinoline hydrochloride] | 2.7 µM | 28.2 µM | – | –
CC(C)(C)OC(=O)N1CCc2cc3c(cc2C1Cc1ccc(-c2cnccc2Cl)cc1)OCO3 (stereo not drawn) [Compound 40, 5-[4-(4-Chloropyridin-3-yl)benzyl]-7,8-dihydro-5H-[1,3]dioxolo[4,5-g]isoquinoline-6-carboxylic acid tert-butyl ester] | 6.3 µM | 37.5 µM | – | –
Clc1ccncc1-c1ccc(CC2NCCc3cc4c(cc32)OCO4)cc1 (stereo not drawn) [Compound 42, 5-[4-(4-Chloropyridin-3-yl)benzyl]-5,6,7,8-tetrahydro-[1,3]dioxolo[4,5-g]isoquinoline dihydrochloride salt] | 2.5 µM | 81.5 µM | – | –
COc1ccncc1-c1ccc(CC2c3cc4c(cc3CCN2C(=O)OC(C)(C)C)OCO4)cc1 (stereo not drawn) [Compound 43, 5-[4-(4-methoxypyridin-3-yl)benzyl]-7,8-dihydro-5H-[1,3]dioxolo[4,5-g]isoquinoline-6-carboxylic acid tert-butyl ester] | 5.8 µM | 12.4 µM | – | –
COc1ccncc1-c1ccc(CC2NCCc3cc4c(cc32)OCO4)cc1 (stereo not drawn) [Compound 45, 5-[4-(4-methoxypyridin-3-yl)benzyl]-5,6,7,8-tetrahydro-[1,3]dioxolo[4,5-g]isoquinoline dihydrochloride salt] | 1.3 µM | 8.3 µM | – | –
